The values that follow come from patent US20220213049A1, “S[…]-4-ONE FOR THE TREATMENT AND PROPHYLAXIS OF HEPATITIS B VIRUS INFECTION” (priority 2019, published 2022).

The test system of assay [1] is HBeAg (surrogate marker for cccDNA) in HepDES19 cells. Nature of the assay: Engineered HepDES19 primary screen assay (HBeAg ELISA). The class given is cell-based, HBV. As to conditions: Hepatitis B virus, HepDES19, 120 h, read-out: IC50 (HBeAg level, HepDES19 primary screen assay). The source says: The assay was employed to screen for novel cccDNA inhibitors. HepDES19 is a cccDNA-producing cell line. In this cell line, HBeAg in the cell culture supernatant as surrogate marker, as HBeAg production depends on cccDNA level and activity. HepDES19 is an engineered cell line which contains a 1.1 unit length HBV genome, and pgRNA transcription from the transgene is controlled by Tetracycline (Tet). In the absence of Tet, pgRNA transcription will be induced, but HBV e antigen (HBeAg) could not be produced from this pgRNA due to very short leader sequence before the HBeAg start codon and the start codon is disrupted. Only after cccDNA is formed, the missing leader sequence and start codon mutation would be restored from the 3′-terminal redundancy of pgRNA, and then HBeAg could be synthesized. Therefore, HBeAg could be used as a surrogate marker for cccDNA (Zhou, T. et al., Antiviral Res. (2006), 72(2), 116-124; Guo, H. et al., J. Virol. (2007), 81(22), 12472-12484).
HepDES19 cells were seeded at 2×10^6 cells per T150 flask and cultured with the culture medium (Dulbecco's Modified Eagle Medium: Nutrient Mixture F-12 [DMEM-F12, Gibco Cat. 11320-82], 10% Fetal Bovine Serum [FBS, Clontech Cat. 631101], 0.1 mM Non-Essential Amino Acids Solution [NEAA, Gibco Cat. 11140-050], 50 μg/mL Penicillin-Streptomycin [PS, Invitrogen Cat. 15140-163], 500 μg/mL Geneticin [G418, Invitrogen Cat. 10131-027]) containing 3 μg/mL Tet (Sigma, Cat. 87128) for 5 days. Cells were then seeded at 4×10^6 cells per T150 in the same culture medium as described above in the absence of Tet for 8 days. Cells were then harvested and frozen at density of 2×10^6 cells per ML. For compound testing, the frozen cells were thawed and seeded into 96-well plates at a density of 6×10^4 cells per well. At 24 hours after seeding, half log serial dilutions of compounds made with Dimethyl sulfoxide (DMSO, Sigma, Cat. D2650) were further diluted with the same culture medium as described above before they were added to the cells to reach desired final compound concentrations and 1% DMSO concentration. Plates were then incubated at 37° C. for another 5 days before measurement of HBeAg level and cell viability. Intracellular HBeAg level were measured with enzyme-linked immunosorbent assay (ELISA) kit (Shanghai Kehua Diagnostic Medical Products Co., Ltd). Cell viability was assessed using Cell Counting Kit-8 (DonJindo, Cat. CK04-20). IC50 values were derived from the dose-response curve using 4 parameter logistic curve fit method.
The compounds of the present invention were tested for their capacity to inhibit extracellular HBeAg level as described herein.

Assay [2] has as its system HBV (extracellular HBsAg) in PHH. Nature of the assay: Cryopreserved primary human hepatocytes (PHH) HBV infection assay, HBsAg CLIA. The class given is cell-based. Conditions: Hepatitis B virus, Hepatocyte, 216 h, read-out: HBsAg IC50. The protocol: This assay is used to confirm the anti-HBV effect of the compounds in HBV PHH infection assay. Cryopreserved PHH (BioreclamationIVT, Lot YJM) was thawed at 37° C. and gently transferred into pre-warmed InVitroGRO HT medium (BioreclamationIVT, Cat. S03317). The mixture was centrifuged at 70 relative centrifugal force (RCF) for 3 minutes at RT, and the supernatant was discarded. Pre-warmed InVitroGRO CP medium (BioreclamationIVT, Cat #S03316) was added to the cell pellet to gently re-suspend cells. The cells were seeded at the density of 5.8×10^4 cells per well to collagen I coated 96-well plate (Gibco, Cat. A1142803) with the InVitroGRO CP medium. All plates were incubated at 37° C. with 5% CO2 and 85% humidity.
At 20 hours after plating, the medium was changed to PHH culture medium (Dulbecco's Modified Eagle Medium (DMEM)/F12 (1:1) (Gibco, Cat. 11320-033), 10% fetal bovine serum (Gibco Cat. 10099141), 100 U/mL penicillin, 100 μg/mL streptomycin (Gibco, Cat. 151401-122), […] (Invitrogen Cat. PHG0311L), 20 ng/mL dexamethasone (Sigma, Cat. D4902) and 250 ng/mL human recombinant insulin (Gibco, Cat. 12585-014)). And the cells were incubated at 37° C. with 5% CO2 and 85% humidity for 4 hours. The medium was then changed to pre-warmed PHH culture medium containing 4% polyethylene glycol (PEG) MW8000 (Sigma, Cat. P1458-50ML) and 1% DMSO (Sigma, Cat. D2650). 5.8×10^6 genomic equivalents of HBV were added into the medium.
At 24 hours post-infection, the cells were gently washed with PBS and refreshed with PHH culture medium supplemented with 1% DMSO, and 0.25 mg/mL Matrix gel (Corning, Cat. 356237) at 200 μL per well. All plates were immediately placed in at 37° C. CO2 incubator.
24 hours later, serial dilutions of compounds made with DMSO were further diluted with the same culture medium (PHH culture medium supplemented with 1% DMSO and 0.25 mg/mL Matrix gel as described above) before they were added to the cells to reach desired final compound concentrations and 1% DMSO concentration. The medium containing the compounds were refreshed every three days.
At 9 days post-compound treatment, extracellular HBsAg level were measured with Chemiluminescence Immuno Assay (CLIA) kit (Autobio, HBsAg Quantitative CLIA). Extracellular HBV DNA was extracted by MagNA Pure 96 system (Roche) and then determined by quantitative PCR with the following primers and probe: […]
HBsAg IC50 and HBV DNA IC50 values were derived from the dose-response curve using 4 parameter logistic curve fit method. The compounds of formula (I) have HBsAg IC50<20 μM, particularly <1 μM; and HBV DNA IC50<50 μM.

The structures appear in SMILES notation.

In the case of `COc1cc(Br)c(OCCO[C@H]2C[C@@H](C(=O)O)C2)cc1-c1cc(=O)c2cccc(Cl)c2o1` [Example 1, Cis-3-[2-[2-bromo-5-(8-chloro-4-oxo-chromen-2-yl)-4-methoxy-phenoxy]ethoxy]cyclobutanecarboxylic acid], the IC50 (as a rule, the point on the concentration scale where inhibition reaches its midpoint) in assay [1] is 3.18 µM; in assay [2], 8.02 µM. For `COc1cc(Br)c(OCCC(=O)O)cc1-c1cc(=O)c2cccc(Cl)c2o1` [Example 2, 3-[2-Bromo-5-(8-chloro-4-oxo-chromen-2-yl)-4-methoxy-phenoxy]propanoic acid] the same measures were 1.19 µM and 3.85 µM.

Turning to `COc1cc(Br)c(OC2CC(C(=O)O)C2)cc1-c1cc(=O)c2cccc(Cl)c2o1` (stereo not shown) [Example 5, 3-[2-Bromo-5-(8-chloro-4-oxo-chromen-2-yl)-4-methoxy-phenoxy]cyclobutanecarboxylic acid], the values for the IC50 in assay [1] and in assay [2] were 6.08 µM and 4.09 µM, respectively. Turning to `COc1cc(Cl)c(OCCO[C@H]2C[C@@H](C(=O)O)C2)cc1-c1cc(=O)c2cccc(Cl)c2o1` [Example 8, Cis-3-[2-[2-chloro-5-(8-chloro-4-oxo-chromen-2-yl)-4-methoxy-phenoxy]ethoxy]cyclobutanecarboxylic acid], the results for the IC50 in assay [1] and in assay [2] were 1.5 µM and 5.13 µM, respectively. For `COc1cc(C)c(OCCCOCC(=O)O)cc1-c1cc(=O)c2cccc(Cl)c2o1` [Example 11, 2-[3-[5-(8-Chloro-4-oxo-chromen-2-yl)-4-methoxy-2-methyl-phenoxy]propoxy]acetic acid] the same measures were 2.43 µM and 7.4 µM. Turning to `Cc1ccc(-c2cc(=O)c3cccc(Cl)c3o2)cc1O[C@H]1C[C@@H](C(=O)O)C1` [Example 15, Cis-3-[5-(8-chloro-4-oxo-chromen-2-yl)-2-methyl-phenoxy]cyclobutanecarboxylic acid], the half-maximal inhibitory concentration (IC50) in assay [1] is 0.49 µM; in assay [2], 1.96 µM. As for `O=C(O)COc1cc(-c2cc(=O)c3cccc(Cl)c3o2)ccc1C(F)(F)F` [Example 22, 2-[5-(8-Chloro-4-oxo-chromen-2-yl)-2-(trifluoromethyl)phenoxy]acetic acid], the results for the concentration for half-maximal inhibition (IC50) in assay [1] and in assay [2] were 0.32 µM and 6.59 µM, respectively.

For the compound `COc1ccc(OCCO[C@H]2C[C@@H](C(=O)O)C2)cc1-c1cc(=O)c2cccc(Cl)c2o1` [Example 31, Cis-3-[2-[3-(8-Chloro-4-oxo-chromen-2-yl)-4-methoxy-phenoxy]ethoxy]cyclobutanecarboxylic acid], the IC50 in assay [1] was 4.66 µM; in assay [2], 10.2 µM. For `COc1c(-c2cc(=O)c3cccc(Cl)c3o2)ccc(Br)c1OC1CC(C(=O)O)C1` (stereo not shown) [Example 35, 3-[6-Bromo-3-(8-chloro-4-oxo-chromen-2-yl)-2-methoxy-phenoxy]cyclobutanecarboxylic acid], in that order: 0.19 µM and 3.91 µM. For `COc1c(-c2cc(=O)c3cccc(Cl)c3o2)ccc(C)c1OC1CC(C(=O)O)C1` (stereo not shown) [Example 36, 3-[3-(8-Chloro-4-oxo-chromen-2-yl)-2-methoxy-6-methyl-phenoxy]cyclobutanecarboxylic acid], in that order: 3.13 µM and 9.26 µM. For `O=C(O)CCOc1cc(-c2cc(=O)c3cccc(Cl)c3o2)c(OC(F)(F)F)cc1Br` [Example 42, 3-[2-Bromo-5-(8-chloro-4-oxo-chromen-2-yl)-4-(trifluoromethoxy)phenoxy]propanoic acid], in assay [1], the IC50 amounted to 2.63 µM. Regarding `O=C(O)CCOc1cc(-c2cc(=O)c3cccc(Cl)c3o2)c(Cl)cc1Br` [Example 43, 3-[2-Bromo-4-chloro-5-(8-chloro-4-oxo-chromen-2-yl)phenoxy]propanoic acid], in assay [1], the IC50 came to 11.7 µM. Still for that read-out and setting: under `COc1c(-c2cc(=O)c3cccc(Cl)c3o2)ccc(Br)c1OCCCNC(=O)C(=O)O` [Example 44, 2-[3-[6-Bromo-3-(8-chloro-4-oxo-chromen-2-yl)-2-methoxy-phenoxy]propylamino]-2-oxo-acetic acid] stands 1.44 µM. With `COc1cc(Br)c(OCCNC(=O)C(=O)O)cc1-c1cc(=O)c2cccc(Cl)c2o1` [Example 45, 2-[2-[2-Bromo-5-(8-chloro-4-oxo-chromen-2-yl)-4-methoxy-phenoxy]ethylamino]-2-oxo-acetic acid], in assay [1], the IC50 is 1.4 µM. On the same count and under the same terms, under `COc1cc(Br)c(OCCCNC(=O)C(=O)O)cc1-c1cc(=O)c2cccc(Cl)c2o1` [Example 46, 2-[3-[2-Bromo-5-(8-chloro-4-oxo-chromen-2-yl)-4-methoxy-phenoxy]propylamino]-2-oxo-acetic acid] stands 0.61 µM.
